According to patent US20050261282A1, “Treatment of basal ganglia-related movement disorders with 2,3-benzodiazepines” (Motac Neuroscience Limited Williams House, priority 2002, published 2005):
Counter-ions that a name gives are not always drawn.

Legend:
[1] = cited from earlier work
MPTP-lesioned marmoset [2] = experiment: Parkinsonian disability (mobility score) in the MPTP-lesioned marmoset model of Parkinson's disease; format: in vivo, Marmosets (Callithrix jacchus); conditions: Tofisopam 5-20 mg/kg oral with L-DOPA 15-17.5 mg/kg oral; mobility score 0-9, every 30 minutes for 4 hours; FIGS. 4 and 5
Experimental: The effect of Tofisopam on L-DOPA-induced dyskinesia was assessed in the MPTP-lesioned marmoset model of Parkinson's disease. 1.1.1 Preparation of MPTP-lesioned marmoset model of Parkinson's disease Marmosets (Callithrix jacchus) (bred in a closed colony at the University of Manchester) were rendered parkinsonian by subcutaneous injection of 2 mg kgl MPTP for 5 consecutive days. The marmosets were allowed to recover for a minimum of 10 weeks until their parkinsonism became stable. The degree of activity and disability before and after MPTP treatment was assessed using a combination of scales as described in section 1.1.2. Animals were then treated with L-DOPA for at least 3 weeks to prime them to elicit dyskinesia. […] The behavioural tests were assessed every 30 minutes for 4 hours, by post hoc analysis of video-recordings by an observer blinded to the treatment. […]

MPTP-lesioned marmoset [3] = experiment: L-DOPA-induced dyskinesia score in the MPTP-lesioned marmoset model of Parkinson's disease; format: in vivo, Marmosets (Callithrix jacchus); conditions: Tofisopam 5-20 mg/kg oral with L-DOPA 15-17.5 mg/kg oral; dyskinesia score 0-4, every 30 minutes for 4 hours; FIGS. 4 and 5
Experimental: The effect of Tofisopam on L-DOPA-induced dyskinesia was assessed in the MPTP-lesioned marmoset model of Parkinson's disease. 1.1.1 Preparation of MPTP-lesioned marmoset model of Parkinson's disease Marmosets (Callithrix jacchus) (bred in a closed colony at the University of Manchester) were rendered parkinsonian by subcutaneous injection of 2 mg kgl MPTP for 5 consecutive days. The marmosets were allowed to recover for a minimum of 10 weeks until their parkinsonism became stable. The degree of activity and disability before and after MPTP treatment was assessed using a combination of scales as described in section 1.1.2. Animals were then treated with L-DOPA for at least 3 weeks to prime them to elicit dyskinesia. (c) Dyskinesia—non-parametric measures based on the following scale: Dyskinesia score: 0=Absent, 1=Mild, fleeting, 2=Moderate, not interfering with normal activity, 3=Marked, at times interfering with normal activity, 4=Severe, continuous, replacing normal activity. The behavioural tests were assessed every 30 minutes for 4 hours, by post hoc analysis of video-recordings by an observer blinded to the treatment. Marmosets received all treatments as described in Table 1. The treatments were randomised such that on each day all marmosets received one of the treatments. There was at least 48 hours washout between treatments. [table]

In the case of `CCN(CC)CCNC(=O)c1cc(Cl)c(N)cc1OC` [Metoclopramide hydrochloride, 4-amino-5-chloro-N-[2-(diethylamino)ethyl]-2-methoxy benzamide monohydrochloride monohydrate], the solubility in water [1] is listed as “freely soluble in water”.

In the case of `CCC1C(C)=NN=C(c2ccc(OC)c(OC)c2)c2cc(OC)c(OC)cc21` (centres unmarked) [Tofisopam], the “antiparkinsonian action of L-DOPA (parkinsonian disability)” value (MPTP-lesioned marmoset [2]) is reported as “without affecting the antiparkinsonian action” and the “severity of L-DOPA-induced dyskinesia” value (MPTP-lesioned marmoset [3]) is reported as “reduces the severity of L-DOPA-induced dyskinesia”.

In the case of `N[C@@H](Cc1ccc(O)c(O)c1)C(=O)O` [levodopa, (−)-3-(3,4-dihydroxy-phenyl)-L-alanine], the solubility in alcohol ([1]; alcohol) is given as “insoluble in alcohol” and the solubility in water [1] is given as “slightly soluble in water”.
